# Laboratory results published in patent publication US6740505B1, “Production of proteins” (SmithKline Beecham Corporation, priority 1998, dated 2004).
# Tests used:
# [1] = test system: recombinant murine NS0 cells transfected with a IgG1 humanised anti-CD23 antibody; assay: Viable cell count (Erythrosin B exclusion, haemocytometer) in repeated batch NS0 cell culture; type: cell-based; conditions: 0.075 mM butyrate
# Description: (§1) Five Erlenmeyer flasks were inoculated with recombinant murine NS0 cells transfected with a IgG1 humanised anti-CD23 antibody (produced according to the method of Bebbington et al, as supra) in a cholesterol containing protein free/glutamine free medium at 0.2×10^6 cells/ml. Sodium butyrate (0.5M) in PBS was added to the flasks at the following concentrations: 0 mM; 0.025 mM; 0.05 mM; 0.075 mM and 0.10 mM and were incubated at […] and 100 rpm in a shake incubator for 4 days. Subsequently, the flasks were subcultured every four days to a start count of […], maintaining sodium butyrate concentrations as above in each flask. The flasks were sampled and assayed before each subculture. The culture was continued in this ‘draw-fill’/‘repeated batch’ manner for 56 days, maintaining sodium butyrate concentrations at the concentrations indicated throughout. Viable cells were counted for each sample taken as outlined below. Antibody titre for each sample taken was determined as outlined below.
# Culture was diluted as necessary in culture medium. It was examined microscopically in a haemocytometer (Neubauer counting chamber) using Erythrosin B (Sigma) 0.04% w/v in PBS, pH 7 as an exclusion dye. The number of viable and non-viable cells per milliliter and the percentage viability of the culture was calculated.
# [2] = test system: recombinant murine NS0 cells transfected with a IgG1 humanised anti-CD23 antibody; assay: Antibody titre (Human IgG by nephelometric method) in repeated batch NS0 cell culture; type: cell-based; conditions: 56 day culture
# Description: as §1
# The quantity of Human IgG was determined by a Nephelometric method (Tanford, C. (1961) Light Scattering. Physical Chemistry of Macromolecules. New York:Wiley, 275-316; Whicher J. T et al (1978), “An evaulation of Hyland laser nephelometer PDQ system for the measurement of immunoglobulins”; Ann.Clin.Biochem. 15, p77-85), whereby the formation of insoluble immune-precipitin of Human IgG with highly specific antibody to Human IgG was measured. The Nephelometer measured the intensity of the light scattered by the insoluble immune-precipitin in reaction solution. The change in intensity of the scattered light signal is proportional to the concentration of Human IgG in tested sample. The quantity of Human IgG in the sample is measured from a standard curve constructed from known concentration of purified Human IgG versus the rate of light scatter signal.
smiles,measurement,setting,value
"CCCC(=O)[O-].[Na+] [Butyrate, sodium butyrate]",decrease in viable cell count compared to control,[1]; by 56 day,narrowed considerably
same,viable cell count compared to control,[1]; early stages of the culturing process,slight decrease in viable cell count
same,antibody titre over control,[2]; 0.075 mM butyrate maintained in medium,marked increase in antibody titre over control
same,antibody titre over control,"[2]; 0.075 mM butyrate maintained in medium, listed as butyrate",marked increase over control
same,consistency of protein production during the culturing process,[2]; 0.075 mM butyrate,more consistent production
same,antibody titre over control,[2]; 0.1 mM butyrate maintained in medium,marked increase in antibody titre over control
same,consistency of protein production during the culturing process,[2]; 0.1 mM butyrate,erratic protein production
